How the values were obtained:
[1] = target: adenosine A2a receptor (A2aR) (Homo sapiens (Human), UniProt P29274); experiment: Inhibition of adenosine A2a receptor cAMP signaling pathway (HTRF cAMP, CHO-K1/A2aR cells); format: cell-based
Summary of the method: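 CHO-K1 cells expressing human A2aR, preincubated 30 min at room temperature with compound (10000–0.001024 nM final) in HEPES/BSA buffer with rolipram and adenosine deaminase, then stimulated 30 min with […] (20 nM final). Intracellular cAMP read by HTRF after 1 h lysis/detection.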

[2] = target: adenosine A1 receptor (A1R) (Homo sapiens (Human), UniProt P30542); experiment: Inhibition of adenosine A1 receptor cAMP signaling pathway (HTRF cAMP, CHO-K1/A1R cells); format: cell-based; settings: Table 2; for IC50: CHO-K1/A1R cells, forskolin 10 μM, CPA 10 nM, cAMP HTRF; for IC50 ratio (A1R/A2aR): selectivity A1R over A2aR
Chain of adenosine A1 receptor (A1R) (P30542 whole entry): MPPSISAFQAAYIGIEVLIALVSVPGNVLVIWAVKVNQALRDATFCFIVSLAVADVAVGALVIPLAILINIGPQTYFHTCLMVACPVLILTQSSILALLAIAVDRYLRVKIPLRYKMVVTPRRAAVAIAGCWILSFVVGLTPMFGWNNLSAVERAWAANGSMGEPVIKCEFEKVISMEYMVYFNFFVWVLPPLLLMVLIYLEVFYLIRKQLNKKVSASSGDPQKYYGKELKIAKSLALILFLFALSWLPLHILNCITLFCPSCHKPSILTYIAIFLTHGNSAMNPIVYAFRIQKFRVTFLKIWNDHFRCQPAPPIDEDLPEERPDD
Excerpt: Test Example 1. Determination of the inhibition activity of the compounds of the present invention on the adenosine A2a receptor (A2aR) cAMP signaling pathway, the adenosine A2b receptor (A2bR) cAMP signaling pathway, the adenosine A1 receptor (A1R) cAMP signaling pathway and the adenosine A3 receptor (A3R) cAMP signaling pathway.
The inhibition activity of the compounds of the present invention on the adenosine A2a receptor cAMP signaling pathway, the adenosine A2b receptor cAMP signaling pathway, the adenosine A1 receptor cAMP signaling pathway and the adenosine A3 receptor cAMP signaling pathway was determined by the following method. The experimental method is briefly described as follows:
2.2 Adenosine A1 receptor
CHO-K1/A1R cells were cultured in DMEM/F12 medium containing 10% fetal bovine serum and 1 mg/ml G418. The cells were digested with the cell separation buffer during the experiment. The cells were then resuspended in the balanced salt buffer containing 20 mM HEPES and 0.1% bovine serum albumin and counted, and the cell density was adjusted to 5×10^5 cells/ml. In the 384-well plate, each well was added with 12.5 μl of cell suspension, and 6.25 μl of test compound (4× concentration) formulated with the balanced salt buffer containing 20 mM HEPES, 0.1% bovine serum albumin, 54 μM rolipram and 2.7 U/ml adenosine deaminase, and the plate was incubated at room temperature for 30 minutes. Each well was then added with 6.25 μl of forskolin and N6-cyclopentyladenosine (4× concentration) formulated with the balanced salt buffer containing 20 mM HEPES, 0.1% bovine serum albumin, 54 μM rolipram and 2.7 U/ml adenosine deaminase, and the plate was incubated at room temperature for 30 minutes. The final concentrations of the compounds were: 100000, 10000, 1000, 100, 10, 1, 0.1 and 0 nM. The final concentration of forskolin was 10 μM. The final concentration of CPA was 10 nM. Intracellular cAMP concentration was detected with the cAMP dynamic 2 kit. cAMP-d2 and Anti-cAMP-Eu-Cryptate were diluted respectively with the cAMP lysis buffer at a ratio of 1:4. Each well was added with 12.5 μl of diluted cAMP-d2, followed by addition of 12.5 μl of diluted Anti-cAMP-Eu-Cryptate, and the plate was incubated at room temperature in the dark for 1 hour. The HTRF signal values were read by the PHERAstar multi-function microplate reader.

Chain of adenosine A2a receptor (A2aR) (P29274 whole entry): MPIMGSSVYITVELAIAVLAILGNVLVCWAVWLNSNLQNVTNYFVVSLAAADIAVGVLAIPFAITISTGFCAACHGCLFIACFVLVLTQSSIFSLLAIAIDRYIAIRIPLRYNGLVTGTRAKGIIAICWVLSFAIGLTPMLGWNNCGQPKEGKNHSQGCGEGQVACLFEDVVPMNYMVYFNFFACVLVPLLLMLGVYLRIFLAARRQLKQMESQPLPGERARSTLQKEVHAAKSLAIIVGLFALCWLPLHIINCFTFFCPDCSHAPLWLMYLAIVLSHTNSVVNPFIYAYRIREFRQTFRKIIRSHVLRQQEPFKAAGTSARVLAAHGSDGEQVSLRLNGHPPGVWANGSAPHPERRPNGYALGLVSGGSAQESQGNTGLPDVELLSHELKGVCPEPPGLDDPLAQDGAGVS

Structure (SMILES) | IC50 ([1]; Table 1, ethyl carbazole 20 nM) [nM] | IC50 ([1]; Table 2, ethyl carbazole 20 nM) [nM] | IC50 ([1]; Table 3, ethyl carbazole 20 nM) [nM] | IC50 [2] [nM] | IC50 ratio (A1R/A2aR) [2]
Cc1cc(-c2c(-c3ccc(F)cc3F)nc(N)n3cnnc23)cc(C(F)(F)F)n1 [Example 18, 7-(2,4-Difluorophenyl)-8-(2-methyl-6-(trifluoromethyl)pyridin-4-yl)-[1,2,4]triazolo[4,3-c]pyrimidin-5-amine] | 3.96 | 3.96 | 0.75 | 409 | 103
Cc1cc(-c2c(-c3ccc(F)cc3F)nc(N)n3cnnc23)cc(C(F)F)n1 [Example 20, 8-(2-(Difluoromethyl)-6-methylpyridin-4-yl)-7-(2,4-difluorophenyl)-[1,2,4]triazolo[4,3-c]pyrimidin-5-amine] | 2.33 | 2.33 | 2.33 | 519 | 223
